Data published in US6765003B1, “3-Arylsulfonyl-2 (substituted methyl) propanoic acid derivatives as matrix metalloproteinase inhibitors” (Pharmacia Italia, SpA, priority 1999, dated 2004).
Read-outs that look alike come from different tables or passages of the source.

Legend:
[1] = biological target: T1, Human gelatinase-A (MMP-2) (Homo sapiens, UniProt P08253); test: MMP inhibition, internal fluorescence quenching method (MCA peptide substrate); format: biochemical
T1 sequence (P08253 110-660): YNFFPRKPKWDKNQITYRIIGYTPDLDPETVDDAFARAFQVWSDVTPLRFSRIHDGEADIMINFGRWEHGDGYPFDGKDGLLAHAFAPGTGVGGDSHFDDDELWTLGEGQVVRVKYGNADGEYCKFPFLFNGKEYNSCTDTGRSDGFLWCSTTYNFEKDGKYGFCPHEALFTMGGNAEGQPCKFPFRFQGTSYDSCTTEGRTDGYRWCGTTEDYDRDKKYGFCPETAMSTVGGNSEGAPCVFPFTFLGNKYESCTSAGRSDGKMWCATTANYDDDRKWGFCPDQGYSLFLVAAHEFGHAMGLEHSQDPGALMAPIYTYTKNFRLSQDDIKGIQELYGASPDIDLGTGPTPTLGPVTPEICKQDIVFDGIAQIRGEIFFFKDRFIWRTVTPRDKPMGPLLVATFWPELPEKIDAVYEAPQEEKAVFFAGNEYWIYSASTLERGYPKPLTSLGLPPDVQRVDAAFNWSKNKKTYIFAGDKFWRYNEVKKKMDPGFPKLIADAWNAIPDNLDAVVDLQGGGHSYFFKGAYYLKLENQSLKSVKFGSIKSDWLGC
Experimental: (§1) The inhibitory activity of the compounds of the present invention was evaluated in vitro against one or more of the MMP enzymes (gelatinases, collagenases, stromelysins) using the internal fluorescence quenching method. The assay method is based on the hydrolysis of the MMP substrate, MCA-Pro-Leu-Gly-Leu-DPA-Ala—Arg-NH2 at 37° C. (see Knight, C. G. et al., FEBS Lett. 296:263-266, 1992). The enzymes cleave at the Gly-Leu bond removing the internally quenching DPA group. The release of the highly fluorescent peptide MCA-Pro-Leu was monitored with a LS50 Perkin Elmer fluorimeter equipped with a Peltier-thermostated cell holder using an excitation wavelength of 326 nm and an emission wavelenght of 398 nm. Slis were set at 14/14. Proper determination of steady-state rates of substrate cleavage required a preincubation at 37° C. of 15 minutes to allow for complete equilibration of the enzyme-inhibitor complex. […] Rates of substrate hydrolysis, expressed as fluorescence arbitrary units per minute, were calculated by least-square analysis of the steady-state linear progression curves. The steady-state rates were fitted to the Michaelis equation describing competitive inhibition; in particular, Ki,app were determined by fining the data to the tight-binding equation of Morrison (Biochem. Biophys. Acta, 185:269-286, 1969) by non-linear methods.
(§2) Human gelatinase-A (MMP-2) was obtained as penzyme (72 kDa) and was activated with 1 mM 4-aminophenylmercuric acetate for 30 min at 37° C. immediately prior to use. The inhibitor was diluted into the assay from a stock solution in 100% DMSO, and controls substituted an equal volume of DMSO so that the final DMSO concentration from inhibitor and substrate dilution in all assays was 1%. The concentration of MMP-2 was 19.2 picoM. For compounds of formula (I) where X is —OH, the assay buffer was 50 mM Tris/HCl pH 6.5 containing 150 mM NaCl, 10 mM CaCl2, 0.01 mM ZnCl2 and 0.05% Brij35 (Protocol A). Other conditions were as stated above.
The compounds of formula (I) where X is —NHOH were tested against MMP-2 and MMP-1 under the conditions stated above, but the assay solution was buffered at pH 7.4 (Protocol B).

[2] = biological target: T2, Human fibroblast collagenase (MMP-1) (Homo sapiens, UniProt P03956); test: MMP inhibition, internal fluorescence quenching method (MCA peptide substrate); format: biochemical
T2 sequence (P03956 101-269): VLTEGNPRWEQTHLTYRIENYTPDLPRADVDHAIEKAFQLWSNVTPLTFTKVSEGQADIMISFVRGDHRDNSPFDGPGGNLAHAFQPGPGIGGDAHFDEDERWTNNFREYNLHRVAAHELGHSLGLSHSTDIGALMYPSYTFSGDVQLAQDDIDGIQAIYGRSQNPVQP
Experimental: as §1, §2
Assay conditions were the same as above, but enzyme concentration was 200 picoM.

patients = details: may be severe and dose-limiting; cited from earlier work
rats = details: rat, in vivo
Excerpt: Questions remain concerning their specificity, bioavailability, and potential long-tens toxicity (see Hodgson, J., ‘Remodeling MMPIs’, Biotechnology 13:554-557, 1995), especially because they are primarily intended (in arthritis and cancer, at least) for prolonged therapy. […] Although the cause of this toxicity is not well understood at this moment, it is thought to arise from an impairment in the normal tissue remodeling that is governed by one or more of the MMPs, primarily fibroblast collagenase (MMP-1). […] Thus, there is a strong need for better MMPIs, especially as far as the properties referred to above (specificity, bioavailability, long-term toxicity) are concerned.

[3] = Protocol A: Tris/HCl pH 6.5, 37° C., MMP-2 19.2 picoM, substrate 3 μM, carboxylic acids, read-out: MMP-2 Ki

| Structure (SMILES) | melting point | Ki [1, 3] | further results |
| --- | --- | --- | --- |
| O=C(NO)C(CN1C(=O)CNC1=O)CS(=O)(=O)c1ccc(-c2ccc(Cl)cc2)cc1 (centres unmarked) [Example 12, 3-[(4′-chloro[1,1′-biphenyl]-4-yl)sulfonyl]-N-hydroxy-2-[(2,5-dioxo-1-imidazolidinyl)methyl]propanamide] | 150 to 156 °C | – | Ki ([1]; Protocol B: pH 7.4, 37° C., hydroxamic acids (X is —NHOH), read-out: MMP-2 Ki (picoM)): 0.069 nM; Ki ([2]; Protocol B: pH 7.4, 37° C., hydroxamic acids (X is —NHOH), read-out: MMP-1 Ki (picoM)): 0.0171 µM |
| COc1ccc(S(=O)(=O)N(Cc2cccnc2)[C@@H](C(=O)NO)C(C)C)cc1 [CGS27023A] | – | – | musculoskeletal syndrome in patients (patients): cause a musculoskeletal syndrome characterized by joint pain and stiffness |
| CNC(=O)[C@@H](NC(=O)[C@@H](CC(=O)NO)CC(C)C)C(C)(C)C [Ro31-9790] | – | – | joint toxicity (histology of stifle joints) (rats): elicited histological alteration of stifle joints |
| CC1(C)SCCN(S(=O)(=O)c2ccc(Oc3ccncc3)cc2)[C@H]1C(=O)NO [AG3340] | – | – | musculoskeletal syndrome in patients (patients): cause a musculoskeletal syndrome characterized by joint pain and stiffness |
| O=C(O)C(CN1C(=O)CNC1=O)CS(=O)(=O)c1ccc(-c2ccc(Cl)cc2)cc1 (centres unmarked) [Example 11, 3-[(4′-chloro[1,1′-biphenyl]-4-yl)sulfonyl]-2-[(2,5-dioxo-1-imidazolidinyl)methyl]propanoic acid] | 188 to 190 °C | 4 nM | – |
| CNC(=O)[C@@H](NC(=O)[C@H](CC(C)C)[C@H](O)C(=O)NO)C(C)(C)C [Marimastat] | – | – | joint toxicity (histology of stifle joints) (rats): elicited histological alteration of stifle joints |
| CN1C(=O)N(CC(CS(=O)(=O)c2ccc(-c3ccccc3)cc2)C(=O)O)C(=O)C1(C)C (centres unmarked) [Example 7] | > 200 °C (dec.) | 42 nM | – |
| CC1(C)NC(=O)N(CC(CS(=O)(=O)c2ccc(-c3ccc(Cl)cc3)cc2)C(=O)O)C1=O (centres unmarked) [Example 9, 3-[(4′-chloro[1,1′-biphenyl]-4-yl)sulfonyl]-2-[(4,4-dimethyl-2,5-dioxo-1-imidazolidinyl)methyl]propanoic acid] | 242 to 245 °C | 3 nM | – |
| O=C(O)C(CSc1ccccc1)CS(=O)(=O)c1ccc(-c2ccc(Cl)cc2)cc1 (racemic) [Example 1, 3-[(4′-chloro[1,1′-biphenyl]-4-yl)sulfonyl]-2-[(phenylsulfanyl)methyl]propanoic acid] | 158 to 162 °C | 8.3 nM | – |

The next lines start with results.

| melting point | Ki [1, 3] | Structure (SMILES) | further results |
| --- | --- | --- | --- |
| 166 to 168 °C | 8 nM | O=C(O)C(CSc1ncccn1)CS(=O)(=O)c1ccc(-c2ccc(Cl)cc2)cc1 (centres unmarked) [Example 22, 3-[(4′-chloro[1,1′-biphenyl]-4-yl)sulfonyl]-2-[(2-pyrimidinylsulfanyl)methyl]-propanoic acid] | Ki ([2]; Protocol A: pH 6.5, 37° C., enzyme 200 picoM, substrate 3 μM, carboxylic acids, read-out: MMP-1 Ki): 8.03 µM |
| 184 to 186 °C | 25 nM | Nc1nnc(SCC(CS(=O)(=O)c2ccc(-c3ccc(Cl)cc3)cc2)C(=O)O)s1 (centres unmarked) [Example 23, 3-[(4′-chloro[1,1′-biphenyl]-4-yl)sulfonyl]-2-[[(5-amino-1,3,4-thiadiazol-2-yl)sulfanyl]methyl]propanoic acid] | – |
| 152 to 154 °C | 6.6 nM | O=C(O)C(CSc1nccs1)CS(=O)(=O)c1ccc(-c2ccc(Cl)cc2)cc1 (centres unmarked) [Example 28, 3-[(4′-chloro[1,1′-biphenyl]-4-yl)sulfonyl]-2-[(1,3-thiazol-2-ylsulfanyl)methyl]propanoic acid] | – |
| 170 to 172 °C | 22.8 nM | Cc1cc(C)nc(SCC(CS(=O)(=O)c2ccc(-c3ccc(Cl)cc3)cc2)C(=O)O)n1 (centres unmarked) [Example 27, 3-[(4′-chloro[1,1′-biphenyl]-4-yl)sulfonyl]-2-[[(4,6-dimethyl-2-pyrimidinyl)sulfanyl]methyl]propanoic acid] | – |
| 98 to 100 °C | 26 nM | Cn1nnnc1SCC(CS(=O)(=O)c1ccc(-c2ccc(Cl)cc2)cc1)C(=O)O (centres unmarked) [Example 32, 3-[(4′-chloro[1,1′-biphenyl]-4-yl)sulfonyl]-2-[[(1-methyl-1H-tetrazol-5-yl)sulfanyl]methyl]propanoic acid] | – |
